The values below come from ChEMBL document CHEMBL1134245, “Two novel and potent 3-[(o-methoxyphenyl)piperazinylethyl]-5-phenylthien” (Bioorg Med Chem Lett, 2001).

Assay [1] concerns the target T1, Alpha-1D adrenergic receptor (Rattus norvegicus, UniProt P23944).
T1 sequence (P23944 whole entry): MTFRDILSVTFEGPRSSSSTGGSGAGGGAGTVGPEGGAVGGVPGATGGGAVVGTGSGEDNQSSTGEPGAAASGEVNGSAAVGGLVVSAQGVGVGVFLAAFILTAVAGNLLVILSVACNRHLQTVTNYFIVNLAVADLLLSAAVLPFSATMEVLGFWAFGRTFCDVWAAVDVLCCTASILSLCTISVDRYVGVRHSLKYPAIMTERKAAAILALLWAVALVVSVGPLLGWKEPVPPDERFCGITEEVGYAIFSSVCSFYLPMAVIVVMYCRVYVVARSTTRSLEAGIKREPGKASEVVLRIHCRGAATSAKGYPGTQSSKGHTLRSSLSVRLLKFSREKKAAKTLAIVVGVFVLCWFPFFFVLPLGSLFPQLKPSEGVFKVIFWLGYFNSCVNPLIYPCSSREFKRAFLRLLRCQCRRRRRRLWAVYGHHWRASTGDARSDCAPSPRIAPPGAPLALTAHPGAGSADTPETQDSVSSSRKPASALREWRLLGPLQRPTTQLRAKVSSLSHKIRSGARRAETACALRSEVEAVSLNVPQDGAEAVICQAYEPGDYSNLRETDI
Nature of the assay: Binding affinity towards rat Alpha-1D adrenergic receptor.

The target of assay [2] is T2, Alpha-1A adrenergic receptor (Homo sapiens, UniProt P35348).
T2 sequence (P35348 whole entry): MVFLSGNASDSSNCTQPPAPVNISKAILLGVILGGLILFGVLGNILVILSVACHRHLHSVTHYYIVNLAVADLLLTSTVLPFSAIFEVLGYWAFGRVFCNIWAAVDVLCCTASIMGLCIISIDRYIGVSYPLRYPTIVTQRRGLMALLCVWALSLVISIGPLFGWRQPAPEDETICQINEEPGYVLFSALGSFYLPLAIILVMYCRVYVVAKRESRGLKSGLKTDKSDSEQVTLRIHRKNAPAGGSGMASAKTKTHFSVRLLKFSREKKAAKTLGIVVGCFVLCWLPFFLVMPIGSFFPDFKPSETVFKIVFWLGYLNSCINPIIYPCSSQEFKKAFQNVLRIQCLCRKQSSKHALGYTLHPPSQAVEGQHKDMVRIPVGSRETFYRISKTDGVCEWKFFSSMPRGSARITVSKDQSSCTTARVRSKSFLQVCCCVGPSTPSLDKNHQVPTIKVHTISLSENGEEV
The experiment in a line: Binding affinity for human Alpha-1A adrenergic receptor.

Assay [3] has as its target T3, Alpha-1B adrenergic receptor (Homo sapiens, UniProt P35368).
T3 sequence (P35368 whole entry): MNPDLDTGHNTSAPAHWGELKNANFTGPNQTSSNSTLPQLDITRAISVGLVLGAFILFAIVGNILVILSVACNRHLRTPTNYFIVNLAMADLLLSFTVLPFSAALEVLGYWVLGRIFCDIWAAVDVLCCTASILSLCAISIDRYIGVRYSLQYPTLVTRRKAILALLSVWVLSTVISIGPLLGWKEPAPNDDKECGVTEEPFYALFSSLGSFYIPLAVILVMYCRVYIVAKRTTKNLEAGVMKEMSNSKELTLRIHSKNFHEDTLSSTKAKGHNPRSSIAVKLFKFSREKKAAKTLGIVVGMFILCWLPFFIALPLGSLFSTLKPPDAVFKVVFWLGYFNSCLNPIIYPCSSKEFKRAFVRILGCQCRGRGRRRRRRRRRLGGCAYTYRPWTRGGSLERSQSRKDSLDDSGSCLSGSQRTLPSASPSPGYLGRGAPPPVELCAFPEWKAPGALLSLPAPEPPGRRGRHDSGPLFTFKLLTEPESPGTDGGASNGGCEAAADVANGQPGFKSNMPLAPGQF
The experiment in a line: Binding affinity towards human Alpha-1B adrenergic receptor.

Assay [4] addresses T4, Alpha-1A adrenergic receptor (Rattus norvegicus, UniProt P43140).
T4 sequence (P43140 whole entry): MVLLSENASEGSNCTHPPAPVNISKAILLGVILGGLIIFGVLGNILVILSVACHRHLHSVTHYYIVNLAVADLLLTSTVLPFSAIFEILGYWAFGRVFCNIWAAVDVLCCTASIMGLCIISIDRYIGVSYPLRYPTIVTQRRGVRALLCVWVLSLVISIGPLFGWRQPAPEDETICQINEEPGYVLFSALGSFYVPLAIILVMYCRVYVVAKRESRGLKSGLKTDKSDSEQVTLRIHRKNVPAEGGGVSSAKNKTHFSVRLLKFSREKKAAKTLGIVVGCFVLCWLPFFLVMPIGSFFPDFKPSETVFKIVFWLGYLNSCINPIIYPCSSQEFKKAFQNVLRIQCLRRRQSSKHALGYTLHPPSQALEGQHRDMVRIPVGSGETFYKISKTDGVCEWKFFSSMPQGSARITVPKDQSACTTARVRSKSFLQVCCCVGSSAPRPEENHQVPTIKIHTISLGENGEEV
The experiment in a line: In vitro functional activity at Alpha-1A adrenergic receptor in rat vas deferens. In kind it is tissue-based. The settings on record: read-out: pA2 (converted).

For assay [5], the target named is T4, Alpha-1A adrenergic receptor. Nature of the assay: Binding affinity towards rat Alpha-1A adrenergic receptor.
For assay [6], the target named is Serotonin 1 (5-HT1) receptor (Rattus norvegicus, UniProt P28564+P30940+P19327+P28565). The experiment in a line: Ancillary Binding affinity towards rat 5-hydroxytryptamine 1 receptor. Type of assay: protein assay.
In assay [7] the target is T5, Alpha-1B adrenergic receptor (Rattus norvegicus, UniProt P15823).
T5 sequence (P15823 whole entry): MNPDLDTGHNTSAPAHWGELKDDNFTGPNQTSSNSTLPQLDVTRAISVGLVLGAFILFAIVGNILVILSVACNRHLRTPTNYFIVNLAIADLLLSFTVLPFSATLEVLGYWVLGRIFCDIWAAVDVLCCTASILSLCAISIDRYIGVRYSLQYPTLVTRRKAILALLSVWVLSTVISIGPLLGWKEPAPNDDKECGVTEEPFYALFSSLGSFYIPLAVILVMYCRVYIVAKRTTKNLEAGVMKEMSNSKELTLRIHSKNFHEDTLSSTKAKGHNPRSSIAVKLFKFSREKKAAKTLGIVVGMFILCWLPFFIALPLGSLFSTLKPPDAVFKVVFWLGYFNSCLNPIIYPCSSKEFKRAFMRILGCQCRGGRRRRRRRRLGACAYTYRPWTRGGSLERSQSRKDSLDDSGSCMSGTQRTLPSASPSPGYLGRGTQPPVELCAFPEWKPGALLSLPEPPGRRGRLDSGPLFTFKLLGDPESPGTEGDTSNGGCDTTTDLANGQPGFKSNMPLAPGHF
Nature of the assay: In vitro functional activity at Alpha-1B adrenergic receptor in rat spleen. In kind it is tissue-based. Particulars: read-out: pA2 (converted).

For the next assay, the target named is D(2) dopamine receptor (Rattus norvegicus, UniProt P61169). The experiment in a line: Ancillary Binding affinity towards rat Dopamine receptor D2.

The structures appear in SMILES notation.

Chain of D(2) dopamine receptor (P61169 whole entry): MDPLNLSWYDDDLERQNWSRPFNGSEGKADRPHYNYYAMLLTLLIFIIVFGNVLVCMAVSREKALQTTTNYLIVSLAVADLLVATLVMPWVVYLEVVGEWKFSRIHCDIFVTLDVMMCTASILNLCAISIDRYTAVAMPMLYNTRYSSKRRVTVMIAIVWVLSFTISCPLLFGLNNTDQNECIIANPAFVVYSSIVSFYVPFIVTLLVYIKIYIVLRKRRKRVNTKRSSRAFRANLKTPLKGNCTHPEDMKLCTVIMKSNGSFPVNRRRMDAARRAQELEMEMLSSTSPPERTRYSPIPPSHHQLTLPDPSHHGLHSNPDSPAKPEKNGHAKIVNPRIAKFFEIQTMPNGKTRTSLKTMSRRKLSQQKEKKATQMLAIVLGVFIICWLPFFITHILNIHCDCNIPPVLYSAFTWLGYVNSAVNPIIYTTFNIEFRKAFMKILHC

Consider `COc1ccccc1N1CCN(CCn2c(=O)[nH]c3scc(-c4ccccc4)c3c2=O)CC1` [A-119637], for which the Ki (usually the equilibrium dissociation constant of an inhibitor or competing ligand from its target) turned out to be 0.213 nM in assay [1]; 2.63 nM in assay [2]; 4.66 nM in assay [3]; 2.43 nM in assay [5]; 5490 nM in assay [6]; 50 nM at D(2) dopamine receptor. The Kb is 8.51 nM in assay [4] and 2.04 nM in assay [7].
As for `COc1ccccc1N1CCN(CCn2c(=O)[nH]c3scc(-c4cccc(C)c4)c3c2=O)CC1` [A-123189], the Ki in assay [1] is 0.17 nM; in assay [2], 4.17 nM; in assay [3] it was 9.09 nM; in assay [5], 3.47 nM; in assay [6], 12300 nM; on D(2) dopamine receptor, 17 nM. Also, the Kb in assay [4] was 4.37 nM; in assay [7], 1.74 nM.
